Results: patent US11819511B2, “Composition of N-palmitoyl-ethanolamide and Rutin in co-micronized form” (EPITECH GROUP S.P.A, priority 2019, dated 2023)

Tests used:
[1] = tested on: thoracic aorta rings exposed to peroxynitrite; experiment: Ex vivo vascular reactivity: endothelium-dependent release of thoracic aorta rings from acetylcholine, after complete ligation of the left carotid artery and 14 days of treatment; format: in vivo, C57Bl/6 strain mice; details: aorta rings collected day 14, exposed to peroxynitrite 1 mM, per os once a day for 14 days
Protocol: (§1) (as described by Q.Xu “Mouse models of arteriosclerosis: from arterial injuries to vascular grafts” Am J Pathol. (2014); 165(1):1-10). […] Cuzzocrea et al “Superoxide: a key player in hypertension” FASEB J. […] In particular, the ex vivo measurement of vascular reactivity is carried out with the following procedures: Adult mice of the C57Bl/6 strain weighing 25-30 g are used (Envigo-Italy). The groups of animals on which the evaluations were carried out (10 animals per group) were the following: • Group 1—Animals treated per os with 10 mg/kg of co-micronized palmitoyl-ethanolamide: […] Rutin in a 1:1 ratio, suspended in 1% carboxymethylcellulose solution and with the addition of 0.5 mg/kg of pure hydroxytyrosol in the final solution. At the end of the treatments, the thoracic aortas of the animals are taken and adequately cleaned of the adherent peri-adventitious fat and 3-4 mm rings are cut out. The rings are placed in Krebs solution at pH 7.4 (Krebs solution composition: NaCl 118 mM; KCl 4.7 mM; KH2PO4 1.2 mM; CaCl2 2.5 mM; MgSO4 1.2 mM; NaHCO3 25 mM; glucose 11.7 mM). […] A voltage of 1 g is applied, and the Krebs solution is exchanged every 15 minutes. The aorta rings are exposed to a concentration of peroxynitrile 1 mM.

[2] = tested on: thoracic aorta rings exposed to peroxynitrite; experiment: Ex vivo vascular reactivity: contraction of thoracic aorta rings from norepinephrine, after complete ligation of the left carotid artery and 14 days of treatment; format: in vivo, C57Bl/6 strain mice; details: aorta rings collected day 14, exposed to peroxynitrite 1 mM, per os once a day for 14 days
Protocol: as §1

[3] = Trolox equivalent; cited from earlier work

Q: For `CCCCCCCCCCCCCCCC(=O)NCCO` [Group 2, palmitoyl-ethanolamide], which “Vascular Tone-% of Pre-Contraction from Acetylcholine” value (“Vascular Tone-% of Pre-Contraction” below) ([1]; Acetylcholine 0.1 μM) is on record?
A: 99%

Q: What about the “Vascular Tone-% of Pre-Contraction” value ([1]; Acetylcholine 1.0 μM) of the same compound?
A: 94%

Q: What about the “Vascular Tone-% of Pre-Contraction” value ([1]; Acetylcholine 10.0 μM) of the same compound?
A: 85%

Q: What about the “Contraction (g) from Norepinephrine” value ([2]; Norepinephrine 100 nM) of the same compound?
A: 0.20 g

Q: And the “Contraction (g) from Norepinephrine” value ([2]; Norepinephrine 1,000 nM)?
A: 0.40 g

Q: What about the “Contraction (g) from Norepinephrine” value ([2]; Norepinephrine 10,000 nM) of the same compound?
A: 0.70 g

Q: Which “ORAC (Oxygen Radical Absorbance Capacity) index” value [3] does the source give for `OCCc1ccc(O)c(O)c1` [hydroxytyrosol, 1-(2-hydroxy)ethyl-3,4-dihydroxybenzene] here?
A: 40,000 μmolTE/g

Q: With `C[C@@H]1O[C@@H](OC[C@H]2O[C@@H](Oc3c(-c4ccc(O)c(O)c4)oc4cc(O)cc(O)c4c3=O)[C@H](O)[C@@H](O)[C@@H]2O)[C@H](O)[C@H](O)[C@H]1O` [Group 3, Rutin] as the compound, how does the “Vascular Tone-% of Pre-Contraction” value ([1]; Acetylcholine 0.1 μM) read?
A: 100%

Q: What about the “Vascular Tone-% of Pre-Contraction” value ([1]; Acetylcholine 1.0 μM) of the same compound?
A: 96%

Q: And the “Vascular Tone-% of Pre-Contraction” value ([1]; Acetylcholine 10.0 μM)?
A: 81%

Q: And the “Contraction (g) from Norepinephrine” value ([2]; Norepinephrine 100 nM)?
A: 0.20 g

Q: What about the “Contraction (g) from Norepinephrine” value ([2]; Norepinephrine 1,000 nM) of the same compound?
A: 0.40 g

Q: And the “Contraction (g) from Norepinephrine” value ([2]; Norepinephrine 10,000 nM)?
A: 0.70 g
